biological target: HDM2 protein (Homo sapiens, UniProt Q00987); experiment: fluorescence polarization screening assay (FP IC50); format: binding; details: class symbols
Method: The compounds were evaluated to determine activity at the HDM2 protein by known methods such as the fluorescence polarization screening assay that measures the inhibitory concentration that achieves 50% of maximal activity (FP IC50) and the dissociation constant for inhibitor binding (FP Ki). [Zhang et al., J. Analytical Biochemistry 331: 138-146 (2004)].

HDM2 protein, sequence (Q00987 whole entry): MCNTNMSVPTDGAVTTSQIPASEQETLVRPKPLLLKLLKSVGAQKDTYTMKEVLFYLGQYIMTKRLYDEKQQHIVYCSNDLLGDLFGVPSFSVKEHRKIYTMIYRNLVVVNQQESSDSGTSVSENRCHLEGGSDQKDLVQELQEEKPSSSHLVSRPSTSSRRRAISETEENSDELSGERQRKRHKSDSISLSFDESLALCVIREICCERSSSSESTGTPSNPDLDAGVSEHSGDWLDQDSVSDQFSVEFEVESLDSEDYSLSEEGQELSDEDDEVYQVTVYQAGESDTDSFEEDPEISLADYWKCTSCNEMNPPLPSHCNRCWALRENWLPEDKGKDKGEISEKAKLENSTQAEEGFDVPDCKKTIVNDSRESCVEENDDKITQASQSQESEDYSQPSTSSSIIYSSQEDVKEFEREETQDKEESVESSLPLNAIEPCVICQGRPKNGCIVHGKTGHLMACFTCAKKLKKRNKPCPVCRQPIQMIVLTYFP

Structure (SMILES) | IC50 [nM]
CCC[C@H]1N(C(=O)c2ncccc2C(F)(F)F)CCC[C@@]1(Oc1csc(C(F)(F)F)c1)C(=O)N1Cc2ccc(Cl)cc2C[C@@H]1C(=O)N1CCC(O)CC1 [Compound A168, 1-{[(3R)-6-chloro-2-{[(2R,3S)-2-propyl-1-{[3-(trifluoromethyl)pyridin-2-yl]carbonyl}-3-{[5-(trifluoromethyl)thiophen-3-yl]oxy}piperidin-3-yl]carbonyl}-1,2,3,4-tetrahydroisoquinolin-3-yl]carbonyl}piperidin-4-ol] | 1 to 100
COCCN1CCN(CC[C@H]2N(C(=O)c3ncccc3C(F)(F)F)CCC[C@@]2(Oc2csc(C(F)(F)F)c2)C(=O)N2CCc3cc(Cl)ccc3C2)CC1 [Compound A118, 6-chloro-2-{[(2R,3S)-2-{2-[4-(2-methoxyethyl)piperazin-1-yl]ethyl}-1-{[3-(trifluoromethyl)pyridin-2-yl]carbonyl}-3-{[5-(trifluoromethyl)thiophen-3-yl]oxy}piperidin-3-yl]carbonyl}-1,2,3,4-tetrahydroisoquinoline] | 1 to 100
CCC[C@H]1N(C(=O)c2ncccc2C(F)(F)F)CCC[C@@]1(Oc1csc(C(F)(F)F)c1)C(=O)N1CCc2cc(Br)ccc2C1CC(=O)O (stereo partly drawn) [Compound A72, (6-bromo-2-{[(2R,3S)-2-propyl-1-{[3-(trifluoromethyl)pyridin-2-yl]carbonyl}-3-{[5-(trifluoromethyl)thiophen-3-yl]oxy}piperidin-3-yl]carbonyl}-1,2,3,4-tetrahydroisoquinolin-1-yl)acetic acid] | 1 to 100
CCC[C@H]1N(C(=O)c2ncccc2C(F)(F)F)CCC[C@@]1(Oc1csc(C(F)(F)F)c1)C(=O)N1CCc2cc(Cl)ccc2C1CC(=O)O (stereo partly drawn) [Compound A55, (6-chloro-2-{[(2R,3S)-2-propyl-1-{[3-(trifluoromethyl)pyridin-2-yl]carbonyl}-3-{[5-(trifluoromethyl)thiophen-3-yl]oxy}piperidin-3-yl]carbonyl}-1,2,3,4-. tetrahydroisoquinolin-1-yl)acetic acid] | 1 to 100
CCC[C@H]1N(C(=O)c2ncccc2C(F)(F)F)CCC[C@@]1(Oc1csc(C(F)(F)F)c1)C(=O)N1Cc2ccc(Cl)cc2C[C@@H]1CCC(=O)O [Compound A130, 3-[(3S)-6-chloro-2-{[(2R,3S)-2-propyl-1-{[3-(trifluoromethyl)pyridin-2-yl]carbonyl}-3-{[5-(trifluoromethyl)thiophen-3-yl]oxy}piperidin-3-yl]carbonyl}-1,2,3,4-tetrahydroisoquinolin-3-yl]propanoic acid] | 1 to 100
COCC1c2ccc(Cl)cc2CCN1C(=O)[C@]1(Oc2csc(C(F)(F)F)c2)CCCN(C(=O)c2ncccc2C(F)(F)F)[C@@H]1CCNC1CCOCC1 (stereo partly drawn) [Compound A22, N-{2-[(2R,3S)-3-{[6-chloro-1-(methoxymethyl)-3,4-dihydroisoquinolin-2(1H)-yl]carbonyl}-1-{[3-(trifluoromethyl)pyridin-2-yl]carbonyl}-3-{[5-(trifluoromethyl)thiophen-3-yl]oxy}piperidin-2-yl]ethyl}tetrahydro-2H-pyran-4-amine] | 1 to 100
CCC[C@H]1N(C(=O)c2ncccc2C(F)(F)F)CCC[C@@]1(Oc1ccc(OC(F)(F)F)cc1)C(=O)N1CCc2cc(Cl)ccc2[C@@H]1CCC(=O)O [Compound A111] | 1 to 100
CCC[C@H]1N(C(=O)c2cnccc2C(F)(F)F)CCC[C@@]1(Oc1csc(C(F)(F)F)c1)C(=O)N1CCc2ccccc2C1CC(=O)O (stereo partly drawn) [Compound A122, (2-{[(2R,3S)-2-propyl-1-{[4-(trifluoromethyl)pyridin-3-yl]carbonyl}-3-{[5-(trifluoromethyl)thiophen-3-yl]oxy}piperidin-3-yl]carbonyl}-1,2,3,4-tetrahydroisoquinolin-1-yl)acetic acid] | 1 to 100
CCC[C@H]1N(C(=O)c2ncccc2C(F)(F)F)CCC[C@@]1(Oc1csc(C(F)(F)F)c1)C(=O)N1CCc2cc(S(C)(=O)=O)ccc2C1 [Compound A90, 6-(methylsulfonyl)-2-{[(2R,3S)-2-propyl-1-{[3-(trifluoromethyl)pyridin-2-yl]carbonyl}-3-{[5-(trifluoromethyl)thiophen-3-yl]oxy}piperidin-3-yl]carbonyl}-1,2,3,4-tetrahydroisoquinoline] | 101 to 20000
O=C(c1cnccc1C(F)(F)F)N1CCC[C@@](Oc2csc(C(F)(F)F)c2)(C(=O)N2CCc3ccc(Cl)cc3C2)[C@H]1CCN1CCOCC1 [Compound A3, 7-chloro-2-{[(2R,3S)-2-(2-morpholin-4-ylethyl)-1-{[4-(trifluoromethyl)pyridin-3-yl]carbonyl}-3-{[5-(trifluoromethyl)thiophen-3-yl]oxy}piperidin-3-yl]carbonyl}-1,2,3,4-tetrahydroisoquinoline] | 101 to 20000
COCC1c2ccc(Cl)cc2CCN1C(=O)[C@]1(Oc2csc(C(F)(F)F)c2)CCCN(C(=O)c2ncccc2C(F)(F)F)[C@@H]1CCN1CCCC1 (stereo partly drawn) [Compound A16, 6-chloro-1-(methoxymethyl)-2-{[(2R,3S)-2-(2-pyrrolidin-1-ylethyl)-1-{[3-(trifluoromethyl)pyridin-2-yl]carbonyl}-3-{[5-(trifluoromethyl)thiophen-3-yl]oxy}piperidin-3-yl]carbonyl}-1,2,3,4-tetrahydroisoquinoline] | 1 to 100
O=C(c1cnccc1C(F)(F)F)N1CCC[C@@](Oc2csc(C(F)(F)F)c2)(C(=O)N2CCc3cc(Cl)ccc3C2)[C@H]1CCN1CCOCC1 [Compound A4, 6-chloro-2-{[(2R,3S)-2-(2-morpholin-4-ylethyl)-1-{[4-(trifluoromethyl)pyridin-3-yl]carbonyl}-3-{[5-(trifluoromethyl)thiophen-3-yl]oxy}piperidin-3-yl]carbonyl}-1,2,3,4-tetrahydroisoquinoline] | 1 to 100
COCC1c2ccc(Cl)cc2CCN1C(=O)[C@]1(Oc2csc(C(F)(F)F)c2)CCCN(C(=O)c2ncccc2C(F)(F)F)[C@@H]1CCN1CCC(CCO)CC1 (stereo partly drawn) [Compound A20, 2-(1-{2-[(2R,3S)-3-{[6-chloro-1-(methoxymethyl)-3,4-dihydroisoquinolin-2(1H)-yl]carbonyl}-1-{[3-(trifluoromethyl)pyridin-2-yl]carbonyl}-3-{[5-(trifluoromethyl)thiophen-3-yl]oxy}piperidin-2-yl]ethyl}piperidin-4-yl)ethanol] | 1 to 100
CCC[C@H]1N(C(=O)c2ncccc2C(F)(F)F)CCC[C@@]1(Oc1csc(C(F)(F)F)c1)C(=O)N1CCc2ccsc2C1CC(C)(C)C(=O)O (stereo partly drawn) [Compound A29, 2,2-dimethyl-3-(6-{[(2R,3S)-2-propyl-1-{[3-(trifluoromethyl)pyridin-2-yl]carbonyl}-3-{[5-(trifluoromethyl)thiophen-3-yl]oxy}piperidin-3-yl]carbonyl}-4,5,6,7-tetrahydrothieno[2,3-c]pyridin-7-yl)propanoic acid] | 1 to 100
CCC[C@H]1N(C(=O)c2ncccc2C(F)(F)F)CCC[C@@]1(Oc1csc(C(F)(F)F)c1)C(=O)N1CCc2cc(Cl)ccc2C1C(=O)O (stereo partly drawn) [Compound A100, 6-chloro-2-{[(2R,3S)-2-propyl-1-{[3-(trifluoromethyl)pyridin-2-yl]carbonyl}-3-{[5-(trifluoromethyl)thiophen-3-yl]oxy}piperidin-3-yl]carbonyl}-1,2,3,4-tetrahydroisoquinoline-1-carboxylic acid] | 1 to 100
CCC[C@H]1N(C(=O)c2ncccc2C(F)(F)F)CCC[C@@]1(Oc1csc(C(F)(F)F)c1)C(=O)N1CCc2cc(Cl)ccc2C1CC(C)C (stereo partly drawn) [Compound A176, 6-chloro-1-(2-methylpropyl)-2-{[(2R,3S)-2-propyl-1-{[3-(trifluoromethyl)pyridin-2-yl]carbonyl}-3-{[5-(trifluoromethyl)thiophen-3-yl]oxy}piperidin-3-yl]carbonyl}-1,2,3,4-tetrahydroisoquinoline] | 101 to 20000
CCC[C@H]1N(C(=O)c2ncccc2C(F)(F)F)CCC[C@@]1(Oc1csc(C(F)(F)F)c1)C(=O)N1CCc2cc(F)ccc2C1CCCCC(=O)O (stereo partly drawn) [Compound A41, 5-(6-fluoro-2-{[(2R,3S)-2-propyl-1-{[3-(trifluoromethyl)pyridin-2-yl]carbonyl}-3-{[5-(trifluoromethyl)thiophen-3-yl]oxy}piperidin-3-yl]carbonyl}-1,2,3,4-tetrahydroisoquinolin-1-yl)pentanoic acid] | 1 to 100
CCC[C@H]1N(C(=O)c2ncccc2C(F)(F)F)CCC[C@@]1(Oc1csc(C(F)(F)F)c1)C(=O)N1CCc2sc(Cl)cc2C1CCC(=O)NC (stereo partly drawn) [Compound A27, 3-(2-chloro-5-{[(2R,3S)-2-propyl-1-{[3-(trifluoromethyl)pyridin-2-yl]carbonyl}-3-{[5-(trifluoromethyl)thiophen-3-yl]oxy}piperidin-3-yl]carbonyl}-4,5,6,7-tetrahydrothieno[3,2-c]pyridin-4-yl)-N-methylpropanamide] | 101 to 20000
CCC[C@H]1N(C(=O)c2ncccc2C(F)(F)F)CCC[C@@]1(Oc1csc(C(F)(F)F)c1)C(=O)N1CCc2cc(Cl)ccc2C1CCCC(=O)O (stereo partly drawn) [Compound A73, 4-(6-chloro-2-{[(2R,3S)-2-propyl-1-{[3-(trifluoromethyl)pyridin-2-yl]carbonyl}-3-{[5-(trifluoromethyl)thiophen-3-yl]oxy}piperidin-3-yl]carbonyl}-1,2,3,4-tetrahydroisoquinolin-1-yl)butanoic acid] | 1 to 100
CCC[C@H]1N(C(=O)c2ncccc2C(F)(F)F)CCC[C@@]1(Oc1csc(C(F)(F)F)c1)C(=O)N1Cc2ccc(Cl)cc2C[C@@H]1COCC(=O)O [Compound A38, {[(3R)-6-chloro-2-{[(2R,3S)-2-propyl-1-{[3-(trifluoromethyl)pyridin-2-yl]carbonyl}-3-{[5-(trifluoromethyl)thiophen-3-yl]oxy}piperidin-3-yl]carbonyl}-1,2,3,4-tetrahydroisoquinolin-3-yl]methoxy}acetic acid] | 1 to 100
CCC[C@H]1N(C(=O)c2ncccc2C(F)(F)F)CCC[C@@]1(Oc1csc(C(F)(F)F)c1)C(=O)N1CCc2cc(Cl)ccc2C1CC(C)(C)C#N (stereo partly drawn) [Compound A71, 3-(6-chloro-2-{[(2R,3S)-2-propyl-1-{[3-(trifluoromethyl)pyridin-2-yl]carbonyl}-3-{[5-(trifluoromethyl)thiophen-3-yl]oxy}piperidin-3-yl]carbonyl}-1,2,3,4-tetrahydroisoquinolin-1-yl)-2,2-dimethylpropanenitrile] | 101 to 20000
